Experimental data: the METLIN SMRT retention time set (Domingo-Almenara et al. 2019)

Assay: gradient 5% acetonitrile 3 min, to 50% in 2 min, to 85% in 15 min, held 3 min, 100 µL/min
Conditions: column: Zorbax Extend-C18 2.1 x 50 mm; eluents: water / acetonitrile, 0.1% formic acid
How it was run: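 The system's dead and dwell volumes were 40 μL and 900 μL, with a Zorbax Extend-C18 column (2.1 × 50 mm, 1.8 μm) run at 100 μL/min in water and acetonitrile containing 0.1% formic acid each. Pure standards were analyzed in mixtures of ~100 molecules by HPLC–quadrupole time-of-flight mass spectrometry in positive and negative ionization mode. Retention time was assigned from computationally picked, manually inspected adduct peaks.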

Compound | RP-LC retention time [s]
O=C(NCc1ccc(F)cc1F)C1CCN(c2cncnc2N2CCOCC2)CC1 | 618
Cc1cc(C(=O)Nc2nnc(-c3ccn(C(C)C)n3)o2)no1 | 620
CCc1nnc2nc(N3CCN(C(=O)c4ccc(Cl)s4)CC3)cc(C)n12 | 638
Cc1nn(C2CCS(=O)(=O)C2)c(C)c1C(=O)O (centres undefined) | 571
CCOC(=O)c1c2c3c(cccc3n(C)c1=O)C(=O)c1ccccc1-2 | 907
CN(C)C(=O)c1ccc(N2CCc3ccccc32)s1 | 907
CCCN1C(=O)c2c(C(=O)NCc3ccccc3F)ncn2CC1(C)C(=O)NCCC(C)C (centres undefined) | 836
CCc1ccc(C(=O)c2cnc3cc4c(cc3c2N2CCN(CC)CC2)OCO4)cc1 | 608
COc1ccc(-c2cc(C(=O)N(C)C3CCN(C)CC3)nn2C2CCS(=O)(=O)C2)cc1 (centres undefined) | 600
O=c1c2ccccc2ccc2ccccc12 | 1120
COc1cccc(CC(=O)Nc2ccc3c(c2)Sc2ncccc2C(=O)N3C(C)C)c1 | 855
O=C(c1ccc(F)cc1Cl)N1CCc2nc(-c3ccc(Cl)cc3)ncc2C1 | 1160
Cc1cccc(S(=O)(=O)N2CCN(c3nc4ccncc4n(CC(C)C)c3=O)CC2)c1 | 778
CC(C)NC(=O)c1ccc(OCC2CCN(C(=O)c3ccc(Br)o3)CC2)cc1 | 878
CCN1C(=O)NC(c2ccccc2C(F)(F)F)C2=C1CN(CCC(=O)NC1CC1)C2=O (centres undefined) | 605
Cc1cccc(C(=O)NCC(=O)Nc2nc3ccccc3[nH]2)c1 | 631
CCOc1ccccc1C(=O)N1CCCC1c1nc(-c2ccccc2OC)no1 (centres undefined) | 886
Cc1csc(-c2cc(S(=O)(=O)NCC3CCCCC3)cn2CC(=O)N2CCCCC2)n1 | 1100
COCCN1C(=O)c2ccccc2C(C(=O)Nc2ccc(OC)cc2)C12CCCC2 (centres undefined) | 852
COCc1c(C(=O)N2CCCC2Cc2noc(C3CCCC3)n2)noc1C (centres undefined) | 922
COc1ccc(-c2noc(Cc3nc(-c4ccc(Cl)cc4)cs3)n2)cc1 | 1270
CC1=C(c2ccc(F)cc2)S(=O)(=O)N=C1N1CCCN(C(=O)C2CCCCC2)CC1 | 883
COc1ccc(-c2c(C)noc2NC(C)=O)cc1S(=O)(=O)Nc1ccccc1 | 721

Compound | RP-LC retention time [s]
COc1ccc(CCS(=O)(=O)NCC2CCN(C(=O)Oc3ccccc3)CC2)cc1 | 888
CCNC(=O)C1CCCN(c2nc3ncn(CC(=O)Nc4ccccc4OCC)c(=O)c3s2)C1 (centres undefined) | 700
Fc1ccc(OCc2cn(C3CN(Cc4ccc(F)cc4F)C3)nn2)cc1 | 703
CN1C(=O)c2[nH]nc(-c3ccc(F)cc3)c2C1c1cccc(O)c1 (centres undefined) | 687
COc1ccccc1Nc1c(-c2ccc(C)cc2)nc2cnccn12 | 954
CCc1ccc(NS(=O)(=O)c2cc(-c3nc(C)cs3)cs2)cc1 | 1030
COc1cccc(-c2noc(CN3C(=O)COc4ccccc43)n2)c1 | 981
COc1cc(Cl)c(NS(=O)(=O)c2cc(-c3c(C)noc3NC(C)=O)ccc2OC)c(OC)c1 | 784
O=C(Nc1ccc2c(c1)CCC2)Nc1cccn2ncnc12 | 891
CCOC(=O)C(=O)Nc1nnc(SCc2nnc(-c3ccccc3C)o2)s1 | 829
Cc1nc(N2CCCC(C(=O)Nc3ccc4c(c3)OCCO4)C2)c2c(C)c(C)oc2n1 (centres undefined) | 846
COc1ccc(C)cc1NC(=O)CN1C(=O)C(C)(C)c2cc(C)ccc21 | 588
COc1ccc(CNC(=O)c2cn(-c3cc(N4CCCC(C)C4)ncn3)cn2)cc1 (centres undefined) | 974
C=CCn1ccc2c(OCC(=O)Nc3ccc4c(c3)OCCO4)cccc2c1=O | 818
O=C(Nc1cc(F)ccc1F)N1CCCC(Cn2c(C3CC3)nc3cccnc32)C1 (centres undefined) | 689
CCN1C(=O)c2cc(S(=O)(=O)Nc3ccccc3C)ccc2Oc2cccnc21 | 1000
Cc1nc(-c2ccc(N3CCN(C(=O)c4cccc(Cl)c4)CC3)nc2)sc1C | 957
CCCN1C(=O)COc2cc(-c3noc(C(=O)NCC(C)c4ccccc4)n3)ccc21 (centres undefined) | 793
Cc1cc2c(cc1S(=O)(=O)N1CCCC1C(=O)N(C)C1CCCCC1)OC(C)C(=O)N2 (centres undefined) | 806
CCOc1ccc(OCC)c(NC(=O)C2=C(C)C(=O)OC23CCCCCC3)c1 | 1250
CCC(=O)Nc1nc(-c2ccc3c(c2)NC(=O)CO3)cs1 | 704
CCc1nnc2ccc(-c3noc(-c4ccccc4)n3)cn12 | 906
COc1ccc(C2CC(=O)N(c3ccc(C(C)C)cc3)C(=O)C2)cc1 | 1030

Compound | RP-LC retention time [s]
Cc1ccc(CNC(=O)N(C)CC2CCOCC2)cc1 | 713
CCS(=O)(=O)N1CC(=O)N(c2ccc(F)cc2C)C(C)(C(=O)NCc2ccccc2)C1 (centres undefined) | 818
Cc1ccc2c(c1)N(C(=O)Cn1ccc3ccn(Cc4ccccc4C)c3c1=O)CCO2 | 1090
Cc1nnsc1C(=O)NCC1(O)CCCC1 | 602
CCCOc1nc2ccccc2nc1N1CCCC(C(=O)Nc2cccc(C)c2C)C1 (centres undefined) | 1390
CCOC(=O)c1cnn2c(C(F)(F)F)cc(-c3ccc(F)cc3)nc12 | 1110
CCc1nc2cc(-c3noc(-c4sc(C)nc4C)n3)ccc2o1 | 1060
COc1ccc(NC(=O)c2c(-c3c(F)cccc3Cl)noc2C)cc1[N+](=O)[O-] | 992
N#Cc1ccc(C(=O)NC2CCN(c3ccccc3)C2=O)cc1 (centres undefined) | 742
CCn1cnc(S(=O)(=O)N2CCCC(C(=O)Nc3ccc(C(C)C)cc3)C2)c1 (centres undefined) | 878
O=C(CCc1ccc2c(c1)CN(C(=O)C1COc3ccccc3O1)CCO2)N1CCOCC1 (centres undefined) | 779
CCN(CC)CCNC(=O)c1cc(S(=O)(=O)N2CCCCC2)ccc1Cl | 637
CN(Cc1ccco1)C(=O)C1CCCN(c2ncnc3c2nc2n3CCCCC2)C1 (centres undefined) | 738
COc1ccc(NC(=O)N2CCN(c3cc(C)nc(N4CCOCC4)n3)CC2)c(OC)c1 | 589
O=C(NC1CC1)C1CCN(S(=O)(=O)c2cc(-c3noc(C4CCC4)n3)cs2)CC1 | 878
NC(=O)C1CCN(c2ccc3cccc(OCC(=O)NCc4ccco4)c3n2)CC1 | 552
Cc1ccc(=O)n(CCNC(=O)C2CC(=O)N(c3ccc(C)c(C)c3)C2)n1 (centres undefined) | 615
Cc1ccc2nc(NC(=O)CSc3nnc(C4COc5ccccc5O4)o3)sc2c1 (centres undefined) | 866
Cn1c(=O)n([C@@H]2CCN(C(=O)C3CCC3)C2)c2ncccc21 | 639
COc1ccc(OC)c(S(=O)(=O)N2CCc3nc(-c4ccc(Cl)cc4)ncc3C2)c1 | 1160
COc1ccc2c(c1)CCc1sc(NC(=O)c3ccco3)nc1-2 | 961
Cc1cccc(Nc2ccc(N3CCN(C(=O)c4cccs4)CC3)nn2)n1 | 579
CN(C)C[C@@H]1CN(c2ccncn2)C[C@H]1NC(=O)c1nccc2ccccc12 | 557

Compound | RP-LC retention time [s]
C[C@H]1CN(C(=O)c2cc(Cl)ccc2F)C[C@@H]1c1nc(-c2ccncc2)no1 | 857
CCOC(=O)c1c(C)[nH]c(C(=O)N2CCC(CC(=O)NCc3cccc(Cl)c3)CC2)c1C | 824
CCNC(=O)N1CCCC(c2cccc(C(=O)NCc3ccc(C(F)(F)F)cc3)c2)C1 (centres undefined) | 896
O=C(Nc1c(-c2ccc(F)cc2)nc2ccccn12)c1ccc(F)cc1 | 671
Cc1noc(C)c1S(=O)(=O)N1CCCC(Cn2c(C3CC3)nc3cccnc32)C1 (centres undefined) | 720
CCOC(=O)c1nc(N2CCN(c3cc(C)ccc3C)CC2)c2ccccc2n1 | 1120
CCc1nccn1Cc1noc(-c2ccco2)n1 | 566
CCN1CCCn2cc(S(=O)(=O)Nc3ccc(C)c(C)c3)cc2C1=O | 778
CC(=O)c1ccc(OCC(O)CN2CCN(Cc3ccc(Cl)cc3)CC2)cc1 (centres undefined) | 574
CCCn1cc(C(=O)NCc2ccc(C)cc2)c(S(=O)(=O)N2CCC(C)CC2)n1 | 1140
COc1ccc2c(c1)C=C(C(=O)NCc1ccccc1OC)C=CO2 | 944
Cc1nc2cccnc2n1C1CCN(C(=O)Nc2ccccc2Br)CC1 | 637
O=C(Cn1nc2c(N3CCCCCC3)nccn2c1=O)NCc1ccc(F)cc1 | 691
CC(C)NC(=O)N1CCC(OC2CCN(Cc3ccccc3)CC2)CC1 | 564
CCc1cc(C2CCCN2C(=O)Nc2cccc(OC)c2)on1 (centres undefined) | 835
O=C(NCCN1CCOCC1)c1ccc(-c2c(-c3ccc(F)cc3)ncn2C2CCCC2)o1 | 592
CCCCN(C)C(=O)c1ccc2c(c1)nc1n2CCN(C2CCCCC2)C1=O | 786
CCOC(=O)C1=C(CN2CCN(C3CCCCC3)CC2)NC(=O)NC1c1ccc(OC)cc1 (centres undefined) | 656
CN[C@H](CNC(=O)N1CCC[C@@H]([C@@H](OCCNC(=O)OC)c2cccc(Cl)c2)C1)C[C@H]1CCCOC1 | 780
Cn1cccc1Cc1nnc(SCC(=O)Nc2ccccc2F)n1CCc1ccccc1 | 850
